These results are taken from publication PMC4870705, “Topical Delivery of Protein and Peptide Using Novel Cell Penetrating Peptide IMT-P8” (Scientific Reports, 2016).

“Also recorded” adds a separate entry of the source.

Data set [1] has as its system HeLa cells. Briefly: Cell viability assay (MTT). The class given is cell-based, human. The settings on record: 24 h, serum containing medium; for Cell viability (MTT): HeLa, unlabeled peptide 0, 5, 10 and 20 μM, 37 °C. As for the experimental part:
(§1) Figure 3 Cell viability assay. (A) HeLa, (B) PC3 and (C) MDA-MB-231 cells were incubated with increasing concentrations (5, 10, and 20 μM) of peptides in serum containing medium at 37 °C for 24 h. Cell viability was measured by MTT assay. Viability of only cells (without peptide) was taken as 100% and viabilities of cells treated with increasing concentration of peptides were plotted as percentage of control.
(§2) Cell viability was determined by MTT assay. Briefly, cells (HeLa, PC3 and MDA-MB-231) were seeded at a density of 5 × 10^3 cells/well in 96-well microtiter plates in medium supplemented with 10% FBS 24 h before the start of the experiment. Cells were incubated with different concentrations (5, 10, and 20 μM, respectively) of unlabeled peptides for 24 h. […] At the end of the incubation period, cell growth was assayed by the addition of 20 μl of MTT (5 mg/mL; Sigma-Aldrich) to each well, and plate was incubated at 37 °C for 4 h. Later, the medium was removed carefully, 200 μl DMSO was added and mixed, and the absorbance was read at 570 nm with a microplate reader (Bio-Rad). The survival of cells relative to the control (cells incubated with growth medium containing no peptide) was calculated by taking the ratio of the absorbance at 570 nm values. All the experiments were performed in triplicates.

In data set [2] the test system is HeLa cells. The data set can be described thus: Confocal laser scanning microscopy, intracellular localization in live cells. The settings on record: FITC-labeled peptide 2.5 μM, 30 min, 37 °C.
Protocol: Cells were washed with PBS thrice and live cells were imaged. Scale bars are 10 μm.
Cells were not fixed to avoid artifactual localization of the internalized peptide. At the end of the incubation period, culture medium was removed, and coverslips were washed thoroughly with PBS for 3–5 minutes (thrice) and mounted on glass slides with the antifade reagent.
Thereafter, cells were washed with PBS thrice and immediately examined using the confocal microscope.
For another data set, the system named is PC3 cells. Briefly: Cell viability assay (MTT). The class given is cell-based, human. The note with it: unlabeled peptide 5, 10 and 20 μM, 24 h, serum containing medium. The procedure: as §1, §2
For another data set, the system named is MDA-MB-231 cells. Briefly: Cell viability assay (MTT). The class given is cell-based, human. The note with it: unlabeled peptide 5, 10 and 20 μM, 24 h, serum containing medium. As for the experimental part:
as §1, §2

As for KLAKLAKKLAKLAK [reference compound], the “Cell viability (MTT)” value with HeLa cells [1] is reported as “not effective at any concentration tested”. Further, in the data set with HeLa cells [2], the “Internalization / fluorescence in cells by CLSM” value is reported as “no fluorescence”.

On to “KLAKLAKKLAKLAKRRWRRWNRFNRRRCR [IMT-P8-KLA, fusion peptide of KLA and IMT-P8, 29 aa]”, for which the “Cell viability (MTT)” value is reported as “dose-dependent decrease in cell viability” with PC3 cells, “dose-dependent decrease in cell viability” in the data set on MDA-MB-231 cells and “dose-dependent decrease in cell viability; also recorded: caused significant cell death” with HeLa cells [1]. In addition, the “Cell viability (MTT) at 20 μM” value with HeLa cells [1] (unlabeled peptide 20 μM, HeLa (text says all cell lines examined)) is “significant decrease in cell viability”.

For “RRWRRWNRFNRRRCR [IMT-P8, novel human protein-derived arginine-rich cell-penetrating peptide (Institute of Microbial Technology-Peptide 8), 15 aa]”, the “Cell viability (MTT)” value with HeLa cells [1] is given as “not effective at any concentration tested”.
